PubChem BioAssay AID248 (DTP/NCI, 2004)
Inconclusive results and toxic doses are left out. No stated cut-off is given here; in the data, active means T/C of 150% or more; inactive means T/C below 125%.

Test system: L1210 leukemia ip in BDF1 mice, survival T/C
Test: NCI In Vivo Anticancer Drug Screen. Data for tumor model L1210 Leukemia (intraperitoneal) in B6D2F1 (BDF1) mice
Details: endpoint: mean survival time, higher = longer survival
In short: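 Each compound was tested against a transplantable tumor grown in mice. The endpoint was survival, with treated animals benchmarked against vehicle controls as a simple ratio.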

[1] = dose: 100.0 mg/kg/injection, schedule: Q04DX002 (ip), vehicle: saline
[2] = dose: 200.0 mg/kg/injection, schedule: Q04DX002 (ip), vehicle: saline
[3] = dose: 100.0 mg/kg/injection, schedule: Q01DX009 (ip), vehicle: Klucel (hydroxypropylcellulose) (HPC)
[4] = dose: 100.0 mg/kg/injection, schedule: Q04DX003 (ip), vehicle: Klucel (hydroxypropylcellulose) (HPC)
[5] = dose: 200.0 mg/kg/injection, schedule: Q01DX009 (ip), vehicle: Klucel (hydroxypropylcellulose) (HPC)
[6] = dose: 200.0 mg/kg/injection, schedule: Q04DX003 (ip), vehicle: Klucel (hydroxypropylcellulose) (HPC)
[7] = dose: 400.0 mg/kg/injection, schedule: Q04DX003 (ip), vehicle: Klucel (hydroxypropylcellulose) (HPC)
[8] = dose: 100.0 mg/kg/injection, schedule: Q01DX001 (ip), vehicle: other
[9] = dose: 200.0 mg/kg/injection, schedule: Q01DX001 (ip), vehicle: other
[10] = dose: 400.0 mg/kg/injection, schedule: Q01DX001 (ip), vehicle: other

Measured: T/C

OCC(O)C(O)C(O)CO (centres undefined)
inactive: [1] 107 % of control | [2] 104 % of control | dose: 400.0 mg/kg/injection, schedule: Q04DX002 (ip), vehicle: saline 96 % of control

CCCCC(=O)N(c1ccc(Nc2c3ccccc3nc3cc([N+](=O)[O-])ccc23)cc1)S(C)(=O)=O
active: dose: 6.25 mg/kg/injection, schedule: Q01DX009 (ip), vehicle: saline with Tween-80 160 % of control | dose: 16.5 mg/kg/injection, schedule: Q04DX003 (ip), vehicle: saline with Tween-80 150 % of control | dose: 25.0 mg/kg/injection, schedule: Q01DX009 (sc), vehicle: saline 179 % of control | dose: 25.0 mg/kg/injection, schedule: Q04DX003 (ip), vehicle: saline with Tween-80 153 % of control | dose: 44.0 mg/kg/injection, schedule: Q04DX003 (ip), vehicle: saline 168 % of control | dose: 50.0 mg/kg/injection, schedule: Q04DX003 (ip), vehicle: saline with Tween-80 242 % of control | dose: 100.0 mg/kg/injection, schedule: Q04DX003 (ip), vehicle: saline with Tween-80 188 % of control
inactive: dose: 3.18 mg/kg/injection, schedule: Q01DX009 (sc), vehicle: saline 119 % of control | dose: 25.0 mg/kg/injection, schedule: Q01DX009 (ip), vehicle: saline with Tween-80 95 % of control | dose: 67.0 mg/kg/injection, schedule: Q04DX003 (ip), vehicle: saline 92 % of control | dose: 100.0 mg/kg/injection, schedule: Q04DX003 (ip), vehicle: saline 103 % of control | dose: 200.0 mg/kg/injection, schedule: Q04DX003 (ip), vehicle: saline with Tween-80 100 % of control

CN(C)C(=O)Sc1cc(Cl)c(Cl)cc1Cl
inactive: dose: 87.0 mg/kg/injection, schedule: Q01DX001 (ip), vehicle: Klucel (hydroxypropylcellulose) (HPC) 92 % of control | dose: 175.0 mg/kg/injection, schedule: Q01DX001 (ip), vehicle: Klucel (hydroxypropylcellulose) (HPC) 92 % of control | dose: 350.0 mg/kg/injection, schedule: Q01DX001 (ip), vehicle: Klucel (hydroxypropylcellulose) (HPC) 94 % of control

CCCCP(=O)(CCCC)C1CCCC1
inactive: dose: 100.0 mg/kg/injection, schedule: Q01DX001 (ip), vehicle: saline with Tween-80 103 % of control | dose: 200.0 mg/kg/injection, schedule: Q01DX001 (ip), vehicle: saline with Tween-80 100 % of control | dose: 400.0 mg/kg/injection, schedule: Q01DX001 (ip), vehicle: saline with Tween-80 90 % of control

CCOc1ccc(/C=N/NS(=O)(=O)c2ccc(C)cc2)cc1
inactive: [3] 104 % of control | [4] 91 % of control | [5] 100 % of control | [6] 92 % of control | dose: 400.0 mg/kg/injection, schedule: Q01DX009 (ip), vehicle: Klucel (hydroxypropylcellulose) (HPC) 94 % of control | [7] 92 % of control

Nc1nc2c(nc(NO)n2C2OC(CO)C(O)C2O)c(=O)[nH]1 (centres undefined)
inactive: dose: 50.0 mg/kg/injection, schedule: Q01DX001 (ip), vehicle: carboxymethylcellulose (CMC) 95 % of control | dose: 100.0 mg/kg/injection, schedule: Q01DX001 (ip), vehicle: carboxymethylcellulose (CMC) 110 % of control | dose: 200.0 mg/kg/injection, schedule: Q01DX001 (ip), vehicle: carboxymethylcellulose (CMC) 101 % of control

CNC(=S)N/N=C/c1cc(Cl)cc(Cl)c1
inactive: [8] 102 % of control | [9] 102 % of control | [10] 98 % of control

O=c1ccc2cccc(O)c2[nH]1
inactive: dose: 100.0 mg/kg/injection, schedule: Q01DX001 (ip), vehicle: saline 97 % of control | dose: 200.0 mg/kg/injection, schedule: Q01DX001 (ip), vehicle: saline 94 % of control | dose: 400.0 mg/kg/injection, schedule: Q01DX001 (ip), vehicle: saline 100 % of control

c1ccc2c(c1)Cc1nc3ccccc3nc1-2
inactive: dose: 25.0 mg/kg/injection, schedule: Q01DX009 (ip), vehicle: water 93 % of control | dose: 50.0 mg/kg/injection, schedule: Q01DX009 (ip), vehicle: water 91 % of control | dose: 100.0 mg/kg/injection, schedule: Q01DX009 (ip), vehicle: water 101 % of control | dose: 200.0 mg/kg/injection, schedule: Q01DX009 (ip), vehicle: water 93 % of control | dose: 400.0 mg/kg/injection, schedule: Q01DX009 (ip), vehicle: water 96 % of control

CCCNC(=O)c1cccc2c1-c1ccccc1C2=O
inactive: [8] 93 % of control | [9] 93 % of control | [10] 87 % of control

O=C(O)/C=C/C1CCCCC1
inactive: dose: 75.0 mg/kg/injection, schedule: Q01DX001 (ip), vehicle: saline 97 % of control | dose: 150.0 mg/kg/injection, schedule: Q01DX001 (ip), vehicle: saline 95 % of control | dose: 300.0 mg/kg/injection, schedule: Q01DX001 (ip), vehicle: saline 95 % of control

Cc1ccc(S(=O)(=O)N(C)c2ccc(CC(=O)O)cc2)cc1
inactive: [4] 97 % of control | [6] 95 % of control | [7] 95 % of control

NC(Cc1cnc(N=Nc2ccc(S(N)(=O)=O)cc2)[nH]1)C(=O)O (centres undefined)
inactive: dose: 50.0 mg/kg/injection, schedule: Q01DX009 (ip), vehicle: Klucel (hydroxypropylcellulose) (HPC) 100 % of control | [3] 93 % of control | [5] 93 % of control

S=C(Cc1cc(Cl)ccc1Cl)N1CCOCC1
inactive: dose: 100.0 mg/kg/injection, schedule: Q04DX002 (ip), vehicle: Klucel (hydroxypropylcellulose) (HPC) 95 % of control | dose: 200.0 mg/kg/injection, schedule: Q04DX002 (ip), vehicle: Klucel (hydroxypropylcellulose) (HPC) 109 % of control | dose: 400.0 mg/kg/injection, schedule: Q04DX002 (ip), vehicle: Klucel (hydroxypropylcellulose) (HPC) 98 % of control

O=C(O)C(Br)C(Br)C(=O)O (centres undefined)
inactive: [1] 92 % of control | [4] 97 % of control | [2] 100 % of control | [6] 103 % of control | [7] 95 % of control

O=S1(=O)C=CC1
inactive: dose: 50.0 mg/kg/injection, schedule: Q01DX001 (ip), vehicle: saline 115 % of control

CNCCC(=O)C1CCC(OC)CC1 (centres undefined)
inactive: [1] 92 % of control | [2] 110 % of control
